Laboratory results: patent US20260001928A1 (CORTERIA PHARMACEUTICALS, priority 2022, published 2026)
*1 amine or outer side, *2 acyl side, *3 side chain or, on linkers, in order; H or OH if unused. Where a SMILES comes first, the peptide text is derived from it. Side-chain parts run from the residue outwards. [ ]: non-standard residue; d: D form. The star is where a group is joined. C18 diacid = O=C(O)CCCCCCCCCCCCCCCCC(=O)*; γGlu = O=C(O)[C@H](CCC(=O)[*:2])N[*:1]; AEEA = NCCOCCOCC(=O)O; Aib = CC(C)(N)C(=O)O; Butyryl = CCCC(=O)*

Columns and labels:
[1] = target: T1, human CRF2a receptor (Homo sapiens, UniProt Q13324); experiment: Activity at human CRF2a receptor, cAMP functional assay in TeloHEAC cells; format: cell-based; conditions: TeloHEAC cells stably expressing human CRF2a receptor, relative to urocortin 2 (100 nM = 100%)
T1 construct: expressed in transfected cells; host or cells: TeloHEAC cells
T1 sequence (Q13324 1-411): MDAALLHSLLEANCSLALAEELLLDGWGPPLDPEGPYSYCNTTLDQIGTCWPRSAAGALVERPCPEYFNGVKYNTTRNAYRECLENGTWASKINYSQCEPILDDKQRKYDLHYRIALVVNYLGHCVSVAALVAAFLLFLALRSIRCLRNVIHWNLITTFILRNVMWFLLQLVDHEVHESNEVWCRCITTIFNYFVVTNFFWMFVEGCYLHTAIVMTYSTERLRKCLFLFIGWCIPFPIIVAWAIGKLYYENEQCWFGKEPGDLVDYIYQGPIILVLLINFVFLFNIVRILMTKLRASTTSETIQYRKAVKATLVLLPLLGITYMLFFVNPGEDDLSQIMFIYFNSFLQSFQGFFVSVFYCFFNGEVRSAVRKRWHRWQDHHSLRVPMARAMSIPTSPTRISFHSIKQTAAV
How it was run: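 cAMP accumulation was measured by HTRF 665/620 nm ratio after 30 min at 37° C compound exposure (16 twofold dilutions) of CRF2a-expressing TeloHEAC cells, 10000/well, in HEPES-buffered HBSS plus IBMX. Activity was normalised to urocortin 2 at 100 nM (100%), and EC50 was the concentration giving half-maximal activation.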

[2] = target: T2, CFR1R receptor (Homo sapiens, UniProt P34998); experiment: Activity at anti-target CFR1R receptor, cAMP assay in CRF1R-overexpression CHO-K1 cells; format: cell-based; conditions: 100% = Sauvagine at 100 nM; for EC50: cAMP
T2 construct: host or cells: CHO-K1 (clone 2)
T2 sequence (P34998 24-415): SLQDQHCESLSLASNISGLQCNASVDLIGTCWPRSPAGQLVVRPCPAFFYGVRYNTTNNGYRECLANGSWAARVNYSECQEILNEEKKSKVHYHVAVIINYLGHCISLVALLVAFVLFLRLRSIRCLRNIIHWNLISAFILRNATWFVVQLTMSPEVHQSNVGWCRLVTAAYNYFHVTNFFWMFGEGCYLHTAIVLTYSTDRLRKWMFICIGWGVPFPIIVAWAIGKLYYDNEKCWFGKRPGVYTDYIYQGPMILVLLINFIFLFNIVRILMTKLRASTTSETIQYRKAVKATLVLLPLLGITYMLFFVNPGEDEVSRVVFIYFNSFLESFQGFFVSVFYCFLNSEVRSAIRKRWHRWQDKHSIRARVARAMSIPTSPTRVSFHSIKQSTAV
How it was run: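 Clone 2; cryopreserved stocks (10% DMSO); 4000 cells/well final; 100% activation = Sauvagine 100 nM; otherwise as TeloHAEC protocol.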

EC50 [1]	Emax (% I) [2]	EC50 [2]	Structure (SMILES)
0.76 nM	5 % I	> 250 nM	CCCC(=O)N[C@H](C(=O)N[C@@H](CC(C)C)C(=O)N[C@@H](CO)C(=O)N[C@@H](CC(C)C)C(=O)N[C@@H](CC(=O)O)C(=O)N[C@H](C(=O)N1CCC[C@H]1C(=O)N[C@H](C(=O)N[C@@H](CCCCN)C(=O)N[C@@H](CC(C)C)C(=O)N[C@@H](CCCCNC(=O)COCCOCCNC(=O)COCCOCCNC(=O)CC[C@H](NC(=O)CCCCCCCCCCCCCCCCC(=O)O)C(=O)O)C(=O)N[C@@H](CCCCN)C(=O)N[C@H](C(=O)N[C@@H](CC(C)C)C(=O)N[C@@H](CC(C)C)C(=O)N[C@@H](CCC(=O)O)C(=O)N[C@@H](CCC(N)=O)C(=O)N[C@@H](CCC(=O)O)C(=O)N[C@@H](CCCCN)C(=O)N[C@@H](CCC(N)=O)C(=O)N[C@@H](CCCCN)C(=O)N[C@@H](CCCCN)C(=O)N[C@@H](CCC(N)=O)C(=O)N[C@@H](CCCNC(=N)N)C(=O)N[C@@H](CCC(=O)O)C(=O)N[C@@H](CCC(N)=O)C(=O)N[C@@H](C)C(=O)N[C@@H](CCC(=O)O)C(=O)N[C@H](C(=O)N[C@@H](CC(N)=O)C(=O)N[C@@H](CCCCN)C(=O)N[C@@H](CCC(N)=O)C(=O)N[C@H](C(=O)N[C@@H](CC(C)C)C(=O)N[C@@H](C)C(=O)N[C@@H](CCC(N)=O)C(=O)N[C@H](C(N)=O)C(C)C)[C@@H](C)CC)[C@@H](C)O)[C@@H](C)CC)[C@@H](C)CC)C(C)C)C(C)C [compound 95] (Butyryl-VLSLDVPIKLK([AEEA-AEEA-γGlu-C18 diacid])KILLEQEKQKKQREQAETNKQILAQV-NH2)
3.17 nM	0 % I	> 250 nM	CC[C@H](C)[C@H](NC(C)=O)C(=O)N[C@H](C(=O)N[C@@H](CC(C)C)C(=O)N[C@@H](CO)C(=O)N[C@@H](CC(C)C)C(=O)N[C@@H](CC(=O)O)C(=O)N[C@H](C(=O)N1CCC[C@H]1C(=O)N[C@H](C(=O)N[C@@H](CCCCN)C(=O)N[C@@H](CC(C)C)C(=O)N[C@@H](CCCCNC(=O)COCCOCCNC(=O)COCCOCCNC(=O)CC[C@H](NC(=O)CCCCCCCCCCCCCCCCC(=O)O)C(=O)O)C(=O)N[C@@H](CCCCN)C(=O)N[C@H](C(=O)N[C@@H](CC(C)C)C(=O)N[C@@H](CC(C)C)C(=O)N[C@@H](CCC(=O)O)C(=O)N[C@@H](CCC(N)=O)C(=O)N[C@@H](CCC(=O)O)C(=O)N[C@@H](CCCCN)C(=O)N[C@@H](CCC(N)=O)C(=O)N[C@@H](CCCCN)C(=O)N[C@@H](CCCCN)C(=O)N[C@@H](CCC(N)=O)C(=O)N[C@@H](CCCNC(=N)N)C(=O)N[C@@H](CCC(=O)O)C(=O)N[C@@H](CCC(N)=O)C(=O)N[C@@H](C)C(=O)N[C@@H](CCC(=O)O)C(=O)N[C@H](C(=O)N[C@@H](CC(N)=O)C(=O)NC(C)(C)C(=O)N[C@@H](CCC(N)=O)C(=O)N[C@H](C(=O)N[C@@H](CC(C)C)C(=O)N[C@@H](C)C(=O)N[C@@H](CCC(N)=O)C(=O)N[C@H](C(N)=O)C(C)C)[C@@H](C)CC)[C@@H](C)O)[C@@H](C)CC)[C@@H](C)CC)C(C)C)C(C)C [compound 97] (Ac-IVLSLDVPIKLK([AEEA-AEEA-γGlu-C18 diacid])KILLEQEKQKKQREQAETN[Aib]QILAQV-NH2)
